Test results as given in patent US20160346304A1, “AGENT FOR SUSTAINING SATIETY AND METHOD FOR SUSTAINING SATIETY” (JICHI MEDICAL UNIVERSITY, priority 2014, published 2016).

Legend:
C57BL/6J male mice [1] = experiment: Conditioned taste aversion test (preference to saccharin solution); assay type: in vivo; settings: conditioning on day 6, test on day 8
Procedure: As the experimental animal, C57BL/6J male mice which were the same as used in the previous experiment were used. The mice reared in individual cages were given two bottles of water only for 2 hours in a period between 10:00 a.m. and 12:00 p.m. for 5 days, whereby the mice were acclimated to the water restriction schedule. On day 6, a 0.15% saccharin solution was presented for 30 minutes, and thereafter, lithium chloride (3 mmol/kg) was intraperitoneally administered, whereby the mice were made to acquire an aversion to the taste of the saccharin solution (conditioning). In the same manner, a control group in which physiological saline (10 mL/kg) was orally administered and a test group in which D-psicose (1 g/kg or 3 g/kg) was orally administered were prepared. On day 7 serving as a rest day, the above-described water restriction schedule was performed. On day 8 serving as a test day, two bottles, one bottle containing a 0.15% saccharin solution and the other bottle containing water, were simultaneously presented for 30 minutes, and the ratio of preference to the saccharin solution (the intake amount of saccharin/the total intake amount from the two bottles) was determined.
The ratio of preference to the saccharin solution after making the mice to acquire a conditioned taste aversion is shown in FIG. 4. The obtained results are expressed as a mean and a standard error. A statistical test was performed by a one-way analysis of variance, and a Dunnett's test in comparison with the control group was performed. The data was marked with ** when the P value was less than 1%.

C57BL/6J male mice [2] = experiment: Liquid food intake in sham-operated and subdiaphragmatic vagotomized mice; assay type: in vivo; settings: oral gavage 1 g/kg
Procedure: As the experimental animal, C57BL/6J male mice were used. The mice were divided into the following two groups: a sham-operated group consisting of sham-operated mice; and a subdiaphragmatic vagotomized group consisting of subdiaphragmatic vagotomized mice, and were subjected to the operation, respectively. After a recovery period of one week, the mice were fasted overnight (for 16 hours) on the previous day of the experiment of food intake. Thereafter, each test solution was orally administered by gavage to the mice, and the intake of a liquid food (milk for babies and toddlers) after the administration was examined. As the respective test solutions administered, in both of the sham-operated group and the subdiaphragmatic vagotomized group, physiological saline (10 mL/kg) or D-psicose (1 g/kg) was orally administered by gavage. The concentration of the D-psicose solution at this time was 10%. Each test solution was orally administered by gavage to mice at 9:45 a.m., and from 10:00 a.m., the mice were allowed free access to the liquid food, and the food intake was measured over time.
The cumulative liquid food intake after orally administering D-psicose (1 g/kg) by gavage to the subdiaphragmatic vagotomized mice and the sham-operated mice is shown in FIG. 6. […] The obtained results are expressed as a mean and a standard error. […]

[3] = Onset and duration of satiety after ingestion of the agent; assay type: in vivo
C57BL/6J male mice [4] = experiment: Food intake in fasted mice after oral gavage or intraperitoneal administration; assay type: in vivo; settings: for cumulative food intake (relative value (%)): mice fasted 16 hours; for cumulative food intake (energy (kcal)): comparative example, incl. energy of administered sugar
Procedure: As the experimental animal, C57BL/6J male mice were used. The mice were acclimated to the environment by preliminary rearing for 1 week or more in individual cages. After fasting the mice for 16 hours from 18:00 p.m. on the previous day of the experiment, each test solution was orally administered by gavage or intraperitoneally administered to the mice. In each administration route, physiological saline (10 mL/kg) was administered in a control group, and D-psicose (0.3 g/kg, 1 g/kg, or 3 g/kg) was administered in a test group. The concentration of the respective test solutions at this time was […], 10%, and 30%, respectively. Each solution was administered at 9:45 a.m., and from 10:00 a.m., the mice were allowed free access to CE-2 feed (a standard mouse feed with a good nutritional balance manufactured by CLEA Japan, Inc.), and the food intake was measured over time after 0.5 hours, 1 hour, 2 hours, 3 hours, 6 hours, and 24 hours.
Incidentally, as a comparative example, an experiment of oral administration by gavage of D-glucose (1 g/kg and 3 g/kg), which has a sweetness equivalent to D-psicose and has a similar structure, but is metabolized to contribute to energy production, was performed in the same manner.
The results obtained by plotting the elapsed time after administration on the abscissa, and the cumulative food intake (relative value (%)) at each elapsed time on the ordinate are shown in FIG. 1 (oral administration by gavage) and FIG. 2 (intraperitoneal administration). Incidentally, the cumulative food intake (relative value (%)) is expressed as the ratio of the cumulative food intake in each group with the average food intake in the physiological saline group at each time in each experiment performed taken as 100%. The obtained results are expressed as a mean and a standard error. A statistical test was performed by a one-way analysis of variance, and if a significant difference was detected, a Dunnett's test in comparison with the control group was performed. The significance level for the test was set to less than 5% on both sides, and the data was marked with * when the P value was less than 5%, and the data was marked with ** when the P value was less than 1%.
The cumulative food intake (energy (kcal)) after D-glucose (1 g/kg and 3 g/kg) was orally administered by gavage in the comparative example is shown in FIG. 3. […] The notation of the results and the statistical analysis is the same as in FIGS. 1 and 2.

[5] = cited from earlier work
healthy subjects = experiment: Satiety, hunger and appetite questionnaire (VAS) after breakfast in healthy human subjects; assay type: in vivo; settings: humans
Procedure: Therefore, in this test, after fasting the subjects from 12 hours before the test day, the subjects were made to ingest either of the test solutions (150 mL) prepared to have the same degree of sweetness by adding 5 g of D-psicose or 10 mg of aspartame which is a high intensity sweetener as a control food. Incidentally, the concentration of the respective test solutions was 3.3% in the D-psicose group and 0.005% in the aspartame group. Further, the ingestion amount of D-psicose of the subjects was 0.071 to 0.096 g (mean: 0.085 g) per kilogram of body weight. After the ingestion, breakfast (sandwich, yogurt, and juice) (total calories: 405 kcal, proteins: 10.2%, fats: 28.4%, carbohydrates: 61.4%) was ingested in 10 minutes. During the test, the subjects were fasted except that they were allowed to free access to only prescribed water.
The questionnaire with respect to appetite was filled out by the evaluation using the VAS (Visual Analog Scale) method and was prepared according to NPL 11. As the questionnaire items, the following three items: satiety, hunger, and appetite were set. In each item, the subjects were made to put a mark on a line with a length of 100 mm at a position most close to the state at that moment, then, the length from the left end to the position where the mark was put was measured with a ruler and converted into a numerical value. The obtained results are expressed as a mean and a standard error. A statistical test was performed using an unpaired Student's t test, and the data was marked with * when the P value was less than 5%, the data was marked with ** when the P value was less than 1%, and the data was marked with *** when the P value was less than 0.1%.

c-Fos = c-Fos expression (marker of neuronal activation) by immunostaining in nodose ganglion and medullary nucleus tractus solitarius; assay type: in vivo, mice; settings: oral gavage 1 g/kg, fasted overnight, compared with physiological saline group
Procedure: The activation of “vagal afferent nuron” and “medullary nucleus tractus solitarius”, which is a projection site of the vagal afferent nerves, caused by the oral administration of D-psicose was analyzed based on the expression level of c-Fos, which is a marker of neuronal activation, using an immunostaining method. The c-Fos is a kind of immediate early gene and is an intranuclear protein whose expression level increases with the activation of a nerve and can be utilized as a marker of neuronal activation. The cell bodies of the vagal afferent neurons are all localized in the nodose ganglion, and these vagal afferent neurons are bipolar which project to the peripheral side (many internal organs such as heart, lung, gastrointestinal tract, pancreas, and liver) and the central side (medullary nucleus tractus solitarius).
As the experimental animal, C57BL/6J male mice were used. The mice were acclimated to the environment by preliminary rearing and handling for 1 week or more in individual cages. After fasting the mice overnight, D-psicose (1 g/kg) was orally administered by gavage. […]
The results of the expression level of c-Fos in the nodose ganglion and in the medullary nucleus tractus solitarius in the mice after orally administering D-psicose are shown in FIG. 5. The obtained results are expressed as a mean and a standard error. […]

[6] = as compared with D-glucose and D-fructose (NPL 9); cited from earlier work
[7] = 5 g in 150 mL before breakfast, in comparison with control food (aspartame)
[8] = oral administration by gavage, 1 g/kg
[9] = oral administration by gavage, 3 g/kg

SMILES: [Cl-].[Li+] [lithium chloride, reference compound]
- ratio of preference to the saccharin solution (C57BL/6J male mice [1]; intraperitoneal, 3 mmol/kg): significantly decreased

SMILES: O=C(CO)[C@H](O)[C@H](O)[C@H](O)CO [D-psicose]
- cumulative liquid food intake (g) (C57BL/6J male mice [2]; sham-operated group, up to 3 hours after administration): significantly suppressed
- cumulative liquid food intake (g) (C57BL/6J male mice [2]; subdiaphragmatic vagotomized group): the effect was all lost
- time until return to the state before the ingestion [3]: 24 h
- time until the effect is exhibited after the ingestion [3]: about 15 minutes
- cumulative food intake (relative value (%)) (C57BL/6J male mice [4]; intraperitoneal administration, 1 g/kg): no effect on food intake
- cumulative food intake (relative value (%)) (C57BL/6J male mice [4]; intraperitoneal administration, 3 g/kg, 0.5 to 6 hours after administration): significantly decreased
- cumulative food intake (relative value (%)) (C57BL/6J male mice [4]; oral administration by gavage, 0.3 g/kg, any time zone after administration): a change in food intake was not observed
- cumulative food intake (relative value (%)) (C57BL/6J male mice [4]; oral administration by gavage, 1 g/kg, 0.5 to 6 hours after administration): significantly decreased
- cumulative food intake (relative value (%)) (C57BL/6J male mice [4]; oral administration by gavage, 3 g/kg, 0.5 to 6 hours after administration): significantly decreased
- effective amount to reduce food intake in mice (C57BL/6J male mice [4]; oral administration by gavage, mice): 1 g/kg
- increase in blood glucose level after eating ([5]; humans, 5 g ingested along with a regular meal (NPL 6, NPL 7)): suppressed
- blood glucose level ([5]; ingested alone (NPL 7)): does not increase
- blood glucose level after eating ([5]; prediabetic adults, 5 g with breakfast versus 10 mg aspartame, crossover (NPL 6)): significant decrease
- hunger (VAS) (healthy subjects; 5 g before breakfast, from immediately after breakfast up to after 4 hours): significantly suppressed
- duration of effect of suppressing appetite (VAS) (healthy subjects; [7]): ≥ 4 h
- duration of effect of suppressing hunger (VAS) (healthy subjects; [7]): ≥ 4 h
- satiety after eating (VAS) (healthy subjects; [7]): sustained
- expression level of c-Fos in the medullary nucleus tractus solitarius (c-Fos): significantly increased
- expression level of c-Fos in the nodose ganglion (c-Fos): significantly increased
- absorption in the small intestine [6]: slower
- ratio of preference to the saccharin solution (C57BL/6J male mice [1]; [8]): did not affect the preference to the saccharin solution
- ratio of preference to the saccharin solution (C57BL/6J male mice [1]; [9]): did not affect the preference to the saccharin solution

SMILES: O=C[C@H](O)[C@@H](O)[C@H](O)[C@H](O)CO [D-glucose, reference compound]
- cumulative food intake (energy (kcal)) (C57BL/6J male mice [4]; [8]): did not affect food intake
- cumulative food intake (energy (kcal)) (C57BL/6J male mice [4]; [9]): did not affect food intake
